Test results as given in patent US8987216B2, “Polysulfated glycosides and salts thereof” (Teva Hungary Pharmaceutical Marketing Private Limited …, priority 2004, dated 2015).
Where a name gives a salt, the structure may show the parent alone. Read-outs that look alike come from different tables or passages of the source.

Tests used:
[1] = target: T1, IP-3 receptor (Rattus norvegicus, UniProt P29994); experiment: IP-3 receptor antagonistic effect: inhibition of IP3 binding to its receptor in rat cerebellum membrane preparations
T1 construct: determined using rat cerebellum membrane preparations; from tissue; host or cells: rat cerebellum (microsomal membrane preparation)
Experimental: Glycosides of the present invention, depending on their chemical structure, inhibit the binding of inositol-1,4,5-trisphosphate (IP3) to its receptor in microsomal membrane preparations. As IP3 is a messenger molecule playing distinguished role in the activation of different cells, interfering with this function can explain the anti-asthmatic effect of these polysulfated glycosides.
The IP3 antagonist effect of the polysulfated glycosides were determined using rat cerebellum membrane preparations according to Worley et al. (JBC 262, 12132, 1987).

[2] = read-out: IC 50 (μg/ml) Average ± SEM (n) (converted)

T1 sequence (P29994 whole entry): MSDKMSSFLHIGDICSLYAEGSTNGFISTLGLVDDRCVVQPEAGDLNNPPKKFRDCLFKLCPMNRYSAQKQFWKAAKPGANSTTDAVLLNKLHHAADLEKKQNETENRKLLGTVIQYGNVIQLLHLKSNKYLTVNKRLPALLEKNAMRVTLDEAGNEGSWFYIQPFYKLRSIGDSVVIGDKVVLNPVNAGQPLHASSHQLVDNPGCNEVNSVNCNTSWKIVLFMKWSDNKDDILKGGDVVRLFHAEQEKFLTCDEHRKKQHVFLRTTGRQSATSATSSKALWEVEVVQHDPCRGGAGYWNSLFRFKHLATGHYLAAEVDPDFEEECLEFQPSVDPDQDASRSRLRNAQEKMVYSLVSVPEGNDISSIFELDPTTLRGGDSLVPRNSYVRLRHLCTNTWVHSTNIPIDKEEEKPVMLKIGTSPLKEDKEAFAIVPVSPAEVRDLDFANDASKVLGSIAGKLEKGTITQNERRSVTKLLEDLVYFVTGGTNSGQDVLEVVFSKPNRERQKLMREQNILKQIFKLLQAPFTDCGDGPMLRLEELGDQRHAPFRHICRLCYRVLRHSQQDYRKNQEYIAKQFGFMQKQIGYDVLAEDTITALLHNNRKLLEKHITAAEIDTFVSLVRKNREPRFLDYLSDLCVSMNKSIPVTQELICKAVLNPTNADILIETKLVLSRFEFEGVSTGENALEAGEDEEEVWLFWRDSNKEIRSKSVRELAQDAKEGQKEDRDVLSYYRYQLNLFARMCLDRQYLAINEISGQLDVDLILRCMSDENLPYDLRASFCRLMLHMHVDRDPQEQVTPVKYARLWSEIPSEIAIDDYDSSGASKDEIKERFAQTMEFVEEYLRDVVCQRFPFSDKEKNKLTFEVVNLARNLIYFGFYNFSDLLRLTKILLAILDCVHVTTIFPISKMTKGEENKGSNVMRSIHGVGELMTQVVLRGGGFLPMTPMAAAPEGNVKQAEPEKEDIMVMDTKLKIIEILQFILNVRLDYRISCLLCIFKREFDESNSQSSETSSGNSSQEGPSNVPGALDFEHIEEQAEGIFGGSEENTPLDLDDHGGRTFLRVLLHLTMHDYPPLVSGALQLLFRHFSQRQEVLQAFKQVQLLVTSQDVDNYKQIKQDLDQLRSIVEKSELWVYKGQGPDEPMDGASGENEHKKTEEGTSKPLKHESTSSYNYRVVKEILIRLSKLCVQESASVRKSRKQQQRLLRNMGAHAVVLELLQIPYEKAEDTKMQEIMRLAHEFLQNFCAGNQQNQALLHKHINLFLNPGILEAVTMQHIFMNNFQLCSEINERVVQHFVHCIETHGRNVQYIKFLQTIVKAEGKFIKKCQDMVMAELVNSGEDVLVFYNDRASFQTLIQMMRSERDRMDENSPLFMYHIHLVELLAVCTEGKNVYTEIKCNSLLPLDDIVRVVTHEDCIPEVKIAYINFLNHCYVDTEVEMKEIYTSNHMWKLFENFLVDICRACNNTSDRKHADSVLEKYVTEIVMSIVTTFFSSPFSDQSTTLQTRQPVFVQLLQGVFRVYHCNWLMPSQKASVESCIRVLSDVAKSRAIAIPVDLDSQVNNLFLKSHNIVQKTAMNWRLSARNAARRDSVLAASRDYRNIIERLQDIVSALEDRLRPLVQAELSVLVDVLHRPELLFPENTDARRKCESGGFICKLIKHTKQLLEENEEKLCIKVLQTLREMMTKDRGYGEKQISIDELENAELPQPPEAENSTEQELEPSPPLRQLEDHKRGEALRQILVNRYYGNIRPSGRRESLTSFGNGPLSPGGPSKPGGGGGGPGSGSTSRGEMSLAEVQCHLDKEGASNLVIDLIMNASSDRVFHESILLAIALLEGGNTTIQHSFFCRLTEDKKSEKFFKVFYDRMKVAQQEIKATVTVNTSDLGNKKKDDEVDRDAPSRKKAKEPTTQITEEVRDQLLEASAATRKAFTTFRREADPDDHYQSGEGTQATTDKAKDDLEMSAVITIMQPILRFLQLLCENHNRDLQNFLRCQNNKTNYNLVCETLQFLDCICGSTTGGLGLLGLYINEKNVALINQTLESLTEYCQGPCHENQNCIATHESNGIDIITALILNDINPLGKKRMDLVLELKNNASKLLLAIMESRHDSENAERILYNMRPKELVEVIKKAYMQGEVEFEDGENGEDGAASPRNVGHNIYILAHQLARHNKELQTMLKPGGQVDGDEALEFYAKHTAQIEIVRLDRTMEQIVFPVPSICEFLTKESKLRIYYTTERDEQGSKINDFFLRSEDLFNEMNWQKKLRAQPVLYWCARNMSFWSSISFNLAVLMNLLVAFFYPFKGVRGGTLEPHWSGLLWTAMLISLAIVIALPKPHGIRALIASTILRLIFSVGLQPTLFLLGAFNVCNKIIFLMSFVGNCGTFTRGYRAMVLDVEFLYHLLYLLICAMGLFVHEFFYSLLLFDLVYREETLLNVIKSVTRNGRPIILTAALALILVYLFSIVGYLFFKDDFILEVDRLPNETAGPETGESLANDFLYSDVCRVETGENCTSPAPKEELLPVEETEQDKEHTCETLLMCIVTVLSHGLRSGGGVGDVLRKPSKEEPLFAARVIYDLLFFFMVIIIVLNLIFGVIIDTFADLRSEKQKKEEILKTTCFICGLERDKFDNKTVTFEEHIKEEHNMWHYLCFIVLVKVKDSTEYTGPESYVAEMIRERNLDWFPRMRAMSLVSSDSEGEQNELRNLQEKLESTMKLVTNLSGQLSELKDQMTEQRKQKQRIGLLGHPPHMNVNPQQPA

O=S(=O)(O)OC[C@H](OS(=O)(=O)O)[C@@H](OS(=O)(=O)O)[C@H](O[C@H]1O[C@H](COS(=O)(=O)O)[C@@H](OS(=O)(=O)O)[C@H](OS(=O)(=O)O)[C@H]1OS(=O)(=O)O)[C@@H](COS(=O)(=O)O)OS(=O)(=O)O (as salt: potassium) [Example 5, 1,2,3,5,6-penta-O-sulfato-4-O-(2,3,4,6-tetra-O-sulfato-α-D-glucopyranosyl)-D-glucitol nona potassium salt]
melting point: > 220 °C

O=S(=O)(O)OC[C@H](OS(=O)(=O)O)[C@@H](OS(=O)(=O)O)[C@H](OS(=O)(=O)O)[C@@H](CO[C@@H]1O[C@H](COS(=O)(=O)O)[C@@H](OS(=O)(=O)O)[C@H](OS(=O)(=O)O)[C@H]1OS(=O)(=O)O)OS(=O)(=O)O [Example 2, 1,2,3,4,5-penta-O-sulfato-6-O-(2,3,4,6-tetra-O-sulfato-β-D-glucopyranosyl)-D-glucitol nona potassium salt]
IC50 ([1]; read-out: Average IC50): 1410 nM | IC50 [1, 2]: 1870 nM

O=S(=O)(O)OC[C@@H](OS(=O)(=O)O)[C@@H](OS(=O)(=O)O)[C@H](OS(=O)(=O)O)[C@@H](CO[C@H]1OC[C@@H](OS(=O)(=O)O)[C@@H](OS(=O)(=O)O)[C@@H]1OS(=O)(=O)O)OS(=O)(=O)O [Example 16, 2,3,4,5,6-penta-O-sulfato-1-O-(2,3,4-tri-O-sulfato-α-D-arabinopyranosyl)-D-mannitol octa potassium salt]
IC50 ([1]; read-out: Average IC50): 702 nM | IC50 [1, 2]: 2020 nM

O=S(=O)(O)OC[C@H](OS(=O)(=O)O)[C@@H](OS(=O)(=O)O)[C@H](O[C@@H]1O[C@H](COS(=O)(=O)O)[C@H](OS(=O)(=O)O)[C@H](OS(=O)(=O)O)[C@H]1OS(=O)(=O)O)[C@@H](COS(=O)(=O)O)OS(=O)(=O)O [Example 7, 1,2,3,5,6-penta-O-sulfato-4-O-(2,3,4,6-tetra-O-sulfato-β-D-galactopyranosyl)-D-glucitol nona potassium salt]
IC50 ([1]; read-out: Average IC50): 256 nM | IC50 [1, 2]: 338 nM

O=S(=O)(O)OCC1OC(OCC2OC(OCC(OS(=O)(=O)O)C(OS(=O)(=O)O)C(OS(=O)(=O)O)C(COC3OC(COC4OC(COS(=O)(=O)O)C(OS(=O)(=O)O)C(OS(=O)(=O)O)C4OS(=O)(=O)O)C(OS(=O)(=O)O)C(OS(=O)(=O)O)C3OS(=O)(=O)O)OS(=O)(=O)O)C(OS(=O)(=O)O)C(OS(=O)(=O)O)C2OS(=O)(=O)O)C(OS(=O)(=O)O)C(OS(=O)(=O)O)C1OS(=O)(=O)O [Example 10, 2,3,4,5-tetra-O-sulfato-1,6-bis-O-(2,3,4,2′,3′,4′,6′-hepta-O-sulfato-β-gentiobiopyranosyl)-D-mannitol octadeca potassium salt]
IC50 ([1]; read-out: Average IC50): 284 nM | IC50 [1, 2]: 383 nM

O=S(=O)(O)OC[C@H]1O[C@@H](OC[C@@H](OS(=O)(=O)O)[C@@H](OS(=O)(=O)O)[C@H](OS(=O)(=O)O)[C@@H](CO[C@@H]2O[C@H](COS(=O)(=O)O)[C@@H](OS(=O)(=O)O)[C@H](OS(=O)(=O)O)[C@H]2OS(=O)(=O)O)OS(=O)(=O)O)[C@H](OS(=O)(=O)O)[C@@H](OS(=O)(=O)O)[C@@H]1OS(=O)(=O)O [Example 9, 2,3,4,5-tetra-O-sulfato-1,6-bis-O-(2,3,4,6-tetra-O-sulfato-β-D-glucopyranosyl)-D-mannitol dodeca potassium salt]
IC50 ([1]; read-out: Average IC50): 634 nM | IC50 [1, 2]: 832 nM

O=S(=O)(O)OC[C@H]1O[C@@H](OC[C@@H](OS(=O)(=O)O)[C@@H](OS(=O)(=O)O)[C@H](OS(=O)(=O)O)[C@@H](COS(=O)(=O)O)OS(=O)(=O)O)[C@H](OS(=O)(=O)O)[C@@H](OS(=O)(=O)O)[C@@H]1OS(=O)(=O)O [Example 1, 2,3,4,5,6-penta-O-sulfato-1-O-(2,3,4,6-tetra-O-sulfato-β-D-glucopyranosyl)-D-mannitol nona potassium salt]
IC50 ([1]; read-out: Average IC50): 100 nM | IC50 [1, 2]: 131 nM

O=S(=O)(O)OC[C@H]1O[C@@H](OC[C@H](OS(=O)(=O)O)[C@@H](OS(=O)(=O)O)[C@H](OS(=O)(=O)O)[C@@H](COS(=O)(=O)O)OS(=O)(=O)O)[C@H](OS(=O)(=O)O)[C@@H](OS(=O)(=O)O)[C@@H]1OS(=O)(=O)O [Example 3, 2,3,4,5,6-penta-O-sulfato-1-O-(2,3,4,6-tetra-O-sulfato-β-D-glucopyranosyl)-D-glucitol nona potassium salt]
IC50 ([1]; read-out: Average IC50): 405 nM | IC50 [1, 2]: 535 nM

O=S(=O)(O)OCC(OS(=O)(=O)O)C(OC1OC(COS(=O)(=O)O)C(OS(=O)(=O)O)C(OS(=O)(=O)O)C1OS(=O)(=O)O)C(OS(=O)(=O)O)C(COS(=O)(=O)O)OS(=O)(=O)O [Example 6, 1,2,3,5,6-penta-O-sulfato-4-O-(2,3,4,6-tetra-β-sulfato-β-D-glucopyranosyl)-D-glucitol nona potassium salt]
IC50 ([1]; read-out: Average IC50): 256 nM | IC50 [1, 2]: 338 nM

O=S(=O)(O)OCC(OS(=O)(=O)O)C(OC1OC(COS(=O)(=O)O)C(OS(=O)(=O)O)C(OS(=O)(=O)O)C1OS(=O)(=O)O)C(OS(=O)(=O)O)C(COS(=O)(=O)O)OS(=O)(=O)O (as salt: potassium) [Example 6, 1,2,3,5,6-penta-O-sulfato-4-O-(2,3,4,6-tetra-β-sulfato-β-D-glucopyranosyl)-D-glucitol nona potassium salt]
melting point: > 220 °C

O=S(=O)(O)OC[C@H](OS(=O)(=O)O)[C@@H](O[C@@H]1O[C@H](COS(=O)(=O)O)[C@@H](OS(=O)(=O)O)[C@H](OS(=O)(=O)O)[C@H]1OS(=O)(=O)O)[C@H](OS(=O)(=O)O)[C@@H](COS(=O)(=O)O)OS(=O)(=O)O (as salt: potassium) [Example 4, 1,2,4,5,6-penta-O-sulfato-3-O-(2,3,4,6-tetra-β-sulfato-β-D-glucopyranosyl)-D-glucitol nona potassium salt]
melting point: > 220 °C

CO[C@@H]([C@H](OC)[C@@H](COS(=O)(=O)O)OS(=O)(=O)O)[C@@H](CO[C@@H]1O[C@H](CO[C@@H]2O[C@H](COS(=O)(=O)O)[C@@H](OS(=O)(=O)O)[C@H](OS(=O)(=O)O)[C@H]2OS(=O)(=O)O)[C@@H](OS(=O)(=O)O)[C@H](OS(=O)(=O)O)[C@H]1OS(=O)(=O)O)OS(=O)(=O)O [Example 14, 3,4-di-O-methyl-2,5,6-tri-O-sulfato-1-O-(2,3,4,2′,3′,4′,6′-hepta-O-sulfato-β-gentiobiopyranosyl)-D-mannitol deca potassium salt]
IC50 ([1]; read-out: Average IC50): 6100 nM | IC50 [1, 2]: 7830 nM

O=S(=O)(O)OC[C@H]1O[C@@H](OC[C@H](OS(=O)(=O)O)[C@@H](O[C@@H]2O[C@H](COS(=O)(=O)O)[C@@H](OS(=O)(=O)O)[C@H](OS(=O)(=O)O)[C@H]2OS(=O)(=O)O)[C@H](OS(=O)(=O)O)[C@@H](COS(=O)(=O)O)OS(=O)(=O)O)[C@H](OS(=O)(=O)O)[C@@H](OS(=O)(=O)O)[C@@H]1OS(=O)(=O)O [Example 8, 2,4,5,6-tetra-O-sulfato-1,3-bis-O-(2,3,4,6-tetra-O-sulfato-β-D-glucopyranosyl)-D-glucitol dodeca potassium salt]
IC50 ([1]; read-out: Average IC50): 800 nM | IC50 [1, 2]: 1050 nM

O=S(=O)(O)OC[C@H](OS(=O)(=O)O)[C@@H](OS(=O)(=O)O)[C@H](O[C@H]1O[C@H](COS(=O)(=O)O)[C@@H](OS(=O)(=O)O)[C@H](OS(=O)(=O)O)[C@H]1OS(=O)(=O)O)[C@@H](COS(=O)(=O)O)OS(=O)(=O)O [Example 5, 1,2,3,5,6-penta-O-sulfato-4-O-(2,3,4,6-tetra-O-sulfato-α-D-glucopyranosyl)-D-glucitol nona potassium salt]
IC50 ([1]; read-out: Average IC50): 263 nM | IC50 [1, 2]: 347 nM
